Test results reported in the RepoRT retention time repository (doi:10.1016/j.foodchem.2021.129757).

Assays:
Settings in all cases: stereoisomer not certain
[1] = RP, 100 × 0.5 mm, 2.7 µm, 45 °C, 0.015 mL/min, estimated dead time 0.83 min; A: water + 0.9% formic acid; B: acetonitrile + 0.9% formic acid; gradient (min/%B) 0/1 0.5/1 4/95 4.5/1 5/1
[2] = RP, 50 × 0.5 mm, 2.7 µm, 35 °C, 0.01 mL/min, estimated dead time 0.62 min; A: water + 0.1% formic acid, pH 3; B: acetonitrile + 0.1% formic acid, pH 3; gradient (min/%B) 0/5 12/95 14/95 16/5
[3] = Other, Phenomenex Kinetex PFP, 100 × 4.6 mm, 5 µm, 45 °C, 0.6 mL/min, estimated dead time 1.8 min; A: water + 0.1% trifluoroacetic acid, pH 2; B: methanol; gradient (min/%B) 0/40 20/72 21/40
[4] = RP, 150 × 2.1 mm, 2.6 µm, 40 °C, 0.35 mL/min, estimated dead time 0.94 min; A: water + 0.1% formic acid, pH 3; B: acetonitrile + 0.1% formic acid, pH 3; gradient (min/%B) 0/0 1/0 12.5/100 14/100 14.2/0 15/0
[5] = RP, 150 × 2.1 mm, 2.6 µm, 40 °C, 0.35 mL/min, estimated dead time 0.94 min; A: water + 0.1% formic acid, pH 3; B: acetonitrile + 0.1% formic acid, pH 3; gradient (min/%B) 0/0 1/5 7/45 8.5/80 10.5/80 11/5 12/5
[6] = RP, Phenomenex Synergi Hydro-RP, 150 × 2 mm, 4 µm, 30 °C, 0.5 mL/min, estimated dead time 0.6 min; A: water + 0.1% formic acid, pH 3; B: acetonitrile + 0.1% formic acid, pH 3; gradient (min/%B) 0/5 1/5 35/45 40/100 45/100
[7] = RP, Phenomenex Luna Omega Polar C18, 100 × 2.1 mm, 1.6 µm, 40 °C, 0.5 mL/min, estimated dead time 0.44 min; A: water + 0.5% formic acid; B: acetonitrile + 0.5% formic acid; gradient (min/%B) 0/5 3/50 3.1/100 5/100 5.1/5 7/5
[8] = RP, Phenomenex Luna C18, 150 × 4.6 mm, 3 µm, 25 °C, 0.5 mL/min, estimated dead time 3.2 min; A: water + 0.1% formic acid, pH 3; B: acetonitrile + 0.1% formic acid, pH 3; gradient (min/%B) 0/0 30/30 35/40 50/80 52/80 60/0 65/0
[9] = RP, Merck LiChrospher RP-18, 250 × 4 mm, 5 µm, 35 °C, 0.3 mL/min, estimated dead time 6.7 min; A: water + 0.5% formic acid; B: acetonitrile + 0.5% formic acid; gradient (min/%B) 0/5 10/5 30/15 45/20 65/20 95/54 110/63 115/5 135/5
[10] = RP, Phenomenex Luna Omega Polar C18, 100 × 2.1 mm, 1.6 µm, 40 °C, 0.5 mL/min, estimated dead time 0.44 min; A: water + 0.1% formic acid + 10 mM ammonium formate; B: acetonitrile; gradient (min/%B) 0/5 8/20 10/100 12/100 12.1/5 14/5
[11] = RP, Waters ACQUITY UPLC HSS T3, 100 × 2.1 mm, 1.8 µm, 30 °C, 0.4 mL/min, estimated dead time 0.55 min; A: water + 0.1% formic acid, pH 3; B: acetonitrile + 0.1% formic acid, pH 3; gradient (min/%B) 0/0 2/0 15/100 22/100 22.1/0 26/0
[12] = RP, Agilent ZORBAX Eclipse XDB-C18, 100 × 2.1 mm, 1.8 µm, 50 °C, 0.4 mL/min, estimated dead time 0.55 min; A: water + 0.1% formic acid, pH 3; B: methanol + 0.1% formic acid, pH 3; gradient (min/%B) 0/2 10/100 14.5/100 14.51/2 16.5/2
[13] = RP, Waters ACQUITY UPLC BEH C18, 100 × 2.1 mm, 1.7 µm, 65 °C, 0.4 mL/min, estimated dead time 0.55 min; A: water + 0.1% formic acid, pH 3; B: 80% acetonitrile + 20% acetone + 0.1% formic acid, pH 3; gradient (min/%B) 0/0 5/100 5.5/0 6/0
[14] = RP, Waters ACQUITY UPLC BEH Shield RP18, 100 × 2.1 mm, 1.7 µm, 30 °C, 0.6 mL/min, estimated dead time 0.37 min; A: water + 0.1% formic acid, pH 3; B: acetonitrile + 0.1% formic acid, pH 3; gradient (min/%B) 0/0 2/0 7/10 22/95 22.1/0 26/0
[15] = RP, Waters ACQUITY UPLC BEH Shield RP18, 150 × 2.1 mm, 1.7 µm, 40 °C, 0.4 mL/min, estimated dead time 0.83 min; A: water + 0.1% formic acid, pH 3; B: acetonitrile + 0.1% formic acid, pH 3; gradient (min/%B) 0/0 30/50 31/100 37/100 37.1/0
[16] = RP, Agilent ZORBAX RRHD Eclipse Plus C18, 50 × 2.1 mm, 1.8 µm, 30 °C, 0.4 mL/min, estimated dead time 0.28 min; A: water + 0.1% formic acid, pH 3; B: acetonitrile + 0.1% formic acid, pH 3; gradient (min/%B) 0/1 5/10 8/25 9.1/99 10/99 12/1
[17] = RP, Agilent ZORBAX RRHD Eclipse Plus C18, 50 × 2.1 mm, 1.8 µm, 30 °C, 0.4 mL/min, estimated dead time 0.28 min; A: water + 0.1% formic acid, pH 3; B: acetonitrile + 0.1% formic acid, pH 3; gradient (min/%B) 0/1 5/10 8/25 9.1/99 10/99 12/99
[18] = RP, Merck Supelco SUPELCOSIL LC-C18, 250 × 4.6 mm, 5 µm, 40 °C, 1 mL/min, estimated dead time 2.6 min; A: water + 0.1% trifluoroacetic acid, pH 2; B: acetonitrile + 0.1% trifluoroacetic acid, pH 2; gradient (min/%B) 0/5 45/35 47/75 49/35 50/5
[19] = RP, Agilent InfinityLab Poroshell 120 EC-C18, 100 × 3 mm, 2.7 µm, 25 °C, 0.4 mL/min, estimated dead time 1.1 min; A: water + 0.1% formic acid, pH 3; B: acetonitrile + 0.1% formic acid, pH 3; gradient (min/%B) 0/5 10/25 20/40 24/90 25/90 26/5 30/5
[20] = RP, Phenomenex Synergi Hydro-RP, 250 × 2 mm, 4 µm, 25 °C, 0.2 mL/min, estimated dead time 2.5 min; A: water + 0.1% formic acid, pH 3; B: acetonitrile + 0.1% formic acid, pH 3; gradient (min/%B) 0/0.5 7/0.5 12/12.5 25/16.3 47/35 48/65 50/65 50.1/0.5
[21] = RP, Waters Atlantis T3, 100 × 2.1 mm, 3 µm, 40 °C, 0.3 mL/min, estimated dead time 0.73 min; A: water + 0.1% trifluoroacetic acid, pH 2; B: acetonitrile + 0.1% trifluoroacetic acid, pH 2; gradient (min/%B) 0/10 1/10 6/40 7/50 8/50 14/70 16/80 20/10 25/10
[22] = Other, Phenomenex Kinetex PFP, 100 × 4.6 mm, 2.6 µm, 35 °C, 1.5 mL/min, estimated dead time 0.71 min; A: water + 0.1% trifluoroacetic acid, pH 2; B: acetonitrile + 0.1% trifluoroacetic acid, pH 2; gradient (min/%B) 0/1 7/7.5 14/7.6 17/10 18.5/12 20/12.5 24/30 25/90 25.1/1 32/1
[23] = RP, Phenomenex Kinetex EVO C18, 100 × 2.1 mm, 2.6 µm, 40 °C, 0.4 mL/min, estimated dead time 0.55 min; A: water + 0.2% formic acid; B: acetonitrile + 0.2% formic acid; gradient (min/%B) 0/5 0.5/5 7/95 8/95 8.5/5 12/5
[24] = RP, Waters ACQUITY UPLC HSS T3, 100 × 2.1 mm, 50 °C; A: water + 0.1% formic acid, pH 3; B: 30% methanol + 70% acetonitrile + 0.1% formic acid, pH 3; gradient (min/%B) 0/5 1/8 2/15 3/40 4/70 4.5/100 5/100 6.4/100 6.6/5 6.8/5 7/5

Row | SMILES | LC retention time [1] | LC retention time [2] | LC retention time [3] | LC retention time [6] | LC retention time [7] | LC retention time [8] | LC retention time [9] | LC retention time [10] | LC retention time [11] | LC retention time [12] | LC retention time [13] | LC retention time [14] | LC retention time [15] | LC retention time [16] | LC retention time [17] | LC retention time [18] | LC retention time [19] | LC retention time [20] | LC retention time [21] | LC retention time [22] | also measured
1 | COc1cc(/C=C/C(=O)O)ccc1O [Ferulic acid] | 2.44 min | 4.13 min | 7.59 min | 14.4 min | 2.51 min | 23.8 min | 61.3 min | 6.79 min | 9.48 min | 4.64 min | 2.17 min | 12.5 min | 11.2 min | 7.16 min | 4.67 min | 21.7 min | 9.17 min | 32.7 min | 7.28 min | 20.7 min | LC retention time [4]: 5.86 min; LC retention time [5]: 5.86 min
2 | O=C(O)CNC(=O)c1ccccc1 [Hippuric acid] | 2.13 min | 2.59 min | – | 8.54 min | 2.01 min | 15.1 min | – | 3.2 min | 8.4 min | 3.29 min | 1.86 min | 6.13 min | 5.38 min | 4.73 min | 3.49 min | – | 6.09 min | 20.2 min | – | 7.15 min | LC retention time [23]: 3.8 min; LC retention time [24]: 3.07 min
3 | O=C(O)C=Cc1ccc(O)cc1 [p-Coumaric acid] | 2.3 min | 3.84 min | 7.01 min | – | 2.39 min | 21.7 min | 56.2 min | 5.83 min | 9.24 min | 4.32 min | 1.99 min | 12.3 min | 10.8 min | 6.97 min | 6.96 min | 19 min | 8.4 min | 30.1 min | 6.73 min | 17.6 min | LC retention time [24]: 3.45 min
